Each structure is given as a SMILES string. pIC50: −log10 of the molar value.

One assay deals with T1, purified human HDAC6 (Homo sapiens, UniProt Q9UBN7).
T1 construct: purchased BPS Bioscience 5006
T1 sequence (Q9UBN7 1-1215): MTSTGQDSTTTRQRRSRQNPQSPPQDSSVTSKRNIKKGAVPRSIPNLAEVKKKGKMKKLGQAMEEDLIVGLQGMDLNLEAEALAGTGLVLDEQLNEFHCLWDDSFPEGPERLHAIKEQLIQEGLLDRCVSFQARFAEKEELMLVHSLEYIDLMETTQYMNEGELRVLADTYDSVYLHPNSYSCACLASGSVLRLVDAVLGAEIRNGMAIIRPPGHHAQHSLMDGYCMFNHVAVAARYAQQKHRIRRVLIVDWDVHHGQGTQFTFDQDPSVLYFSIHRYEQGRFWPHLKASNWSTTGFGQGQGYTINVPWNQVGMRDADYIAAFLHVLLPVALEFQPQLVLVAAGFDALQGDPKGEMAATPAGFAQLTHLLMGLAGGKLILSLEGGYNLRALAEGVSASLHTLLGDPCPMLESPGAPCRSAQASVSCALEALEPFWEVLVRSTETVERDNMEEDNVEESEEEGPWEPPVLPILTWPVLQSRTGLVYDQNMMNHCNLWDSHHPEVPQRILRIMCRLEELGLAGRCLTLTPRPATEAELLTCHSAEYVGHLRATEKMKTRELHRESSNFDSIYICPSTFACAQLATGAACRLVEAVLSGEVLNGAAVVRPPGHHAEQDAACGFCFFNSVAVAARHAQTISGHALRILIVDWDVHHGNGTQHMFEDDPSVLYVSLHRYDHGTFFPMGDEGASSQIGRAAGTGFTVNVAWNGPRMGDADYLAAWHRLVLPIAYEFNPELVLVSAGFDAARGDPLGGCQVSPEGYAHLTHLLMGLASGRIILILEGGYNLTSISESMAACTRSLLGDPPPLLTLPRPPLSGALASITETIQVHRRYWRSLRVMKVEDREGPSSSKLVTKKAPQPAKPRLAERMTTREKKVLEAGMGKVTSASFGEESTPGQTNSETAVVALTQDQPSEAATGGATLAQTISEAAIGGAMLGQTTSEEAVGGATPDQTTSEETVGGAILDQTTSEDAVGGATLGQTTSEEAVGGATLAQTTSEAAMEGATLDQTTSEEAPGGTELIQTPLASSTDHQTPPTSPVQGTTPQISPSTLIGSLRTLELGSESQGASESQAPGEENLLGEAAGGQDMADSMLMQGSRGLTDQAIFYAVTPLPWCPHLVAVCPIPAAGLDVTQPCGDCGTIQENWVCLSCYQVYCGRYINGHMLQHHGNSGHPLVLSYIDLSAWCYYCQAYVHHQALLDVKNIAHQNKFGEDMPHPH
The assay can be described thus: HDAC6 Enzyme Assay. Format: biochemical. The following applies: bin: greater than 500 nM and less than 1 μM (lower bound in nM, upper bound in μM). Summed up: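 Purified human HDAC6 incubated 1 h at 30 °C with Ac-Arg-Gly-Lys(Ac)-AMC and compound; trichostatin A stop, trypsin release of AMC, fluorescence Ex 340/Em 460 nm. IC50 from concentration–response relative to DMSO.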
Broadly, the IC50 is the point on the concentration scale where inhibition reaches its midpoint. For `C[C@@H](NC(=O)c1cccn1C)c1cccc(C(=O)NO)c1` [Compound I-271, N-((1R)-1-{3-[(hydroxyamino)carbonyl]phenyl}ethyl)-1-methyl-1H-pyrrole-2-carboxamide], the IC50 was 500 to 1000 nM.
On the same count and under the same terms, the result for `C[C@@H](NS(=O)(=O)c1ccc(C(F)(F)F)cc1)c1ccc(C(=O)NO)cc1` [Compound I-351, N-hydroxy-4-[(1R)-1-({[4-(trifluoromethyl)phenyl]sulfonyl}amino)ethyl]benzamide] reads 500 to 1000 nM.
The same measure, in the same setting: the result for `CC(C)C(NC(=O)Cc1cccc(C(F)(F)F)c1)c1ccc(C(=O)NO)cc1` (centres unmarked) [Compound I-195, N-hydroxy-4-[2-methyl-1-({[3-(trifluoromethyl)phenyl]acetyl}amino)propyl]benzamide] reads 500 to 1000 nM.

Staying with this assay, now noted: bin: greater than 1 μM.
As a reminder, the pIC50 is −log10 of the IC50, conventionally taken in molar units. Read a low pIC50 as a high IC50. `CC(C)C(NC(=O)c1cc2ccccc2s1)c1cccc(C(=O)NO)c1` (centres unmarked) [Compound I-390, N-(1-{3-[(hydroxyamino)carbonyl]phenyl}-2-methylpropyl)-1-benzothiophene-2-carboxamide] had a pIC50 below 6.00.
Still for that read-out and setting: for `Cc1cc(C(=O)NC(C)c2cccc(C(=O)NO)c2)c(C)o1` (centres unmarked) [Compound I-104, N-(1-{3-[(hydroxyamino)carbonyl]phenyl}ethyl)-2,5-dimethyl-3-furamide] the value was below 6.00; for `Cn1c(C(=O)NC(c2ccc(C(=O)NO)cc2)C(C)(C)C)cc2oc(-c3ccc(C(F)(F)F)cc3)cc21` (centres unmarked) [Compound I-248, N-(1-{4-[(hydroxyamino)carbonyl]phenyl}-2,2-dimethylpropyl)-4-methyl-2-[4-(trifluoromethyl)phenyl]-4H-furo[3,2-b]pyrrole-5-carboxamide], below 6.00; for `CC(NS(=O)(=O)c1ccc(C(F)(F)F)cc1)c1ccc(C(=O)NO)cc1` (centres unmarked) [Compound I-488, N-hydroxy-4-[1-({[4-(trifluoromethyl)phenyl]sulfonyl}amino)ethyl]benzamide], below 6.00.
`CC(NC(=O)c1cc(Cl)c(Cl)n1C)c1cccc(C(=O)NO)c1` (centres unmarked) [Compound I-39, 4,5-dichloro-N-(1-{3-[(hydroxyamino)carbonyl]phenyl}ethyl)-1-methyl-1H-pyrrole-2-carboxamide] had a pIC50 below 6.00.
Still for that read-out and setting: for `Cn1nc2c(c1C(=O)NC(c1ccc(C(=O)NO)cc1)C(C)(C)C)CCCC2` (centres unmarked) [Compound I-211, N-(1-{4-[(hydroxyamino)carbonyl]phenyl}-2,2-dimethylpropyl)-2-methyl-4,5,6,7-tetrahydro-2H-indazole-3-carboxamide] the value was below 6.00; for `C[C@@H](NC(=O)C12CC3CC(CC(C3)C1)C2)c1cccc(C(=O)NO)c1` [Compound I-312, N-((1R)-1-{3-[(hydroxyamino)carbonyl]phenyl}ethyl)adamantane-1-carboxamide], below 6.00.
On the same count and under the same terms, the result for `Cc1noc(C)c1C(=O)NC(C)c1cccc(C(=O)NO)c1` (centres unmarked) [Compound I-218, N-(1-{3-[(hydroxyamino)carbonyl]phenyl}ethyl)-3,5-dimethylisoxazole-4-carboxamide] reads below 6.00; that for `Cc1noc(C)c1C(=O)NC(c1ccc(C(=O)NO)cc1)C(C)(C)C` (centres unmarked) [Compound I-200, N-(1-{4-[(hydroxyamino)carbonyl]phenyl}-2,2-dimethylpropyl)-3,5-dimethylisoxazole-4-carboxamide], below 6.00.
`COc1cc(C(=O)NO)ccc1C(C)NC(=O)C12CC3CC(CC(C3)C1)C2` (centres unmarked) [Compound I-483, N-(1-{4-[(hydroxyamino)carbonyl]-2-methoxyphenyl}ethyl)adamantane-1-carboxamide] gave a pIC50 below 6.00.

Still in this assay, the particulars now being: purified human HDAC6, substrate Ac-Arg-Gly-Lys(Ac)-AMC, 1 hour at 30° C.; reported as bins.
`CC(C)C(NC(=O)c1ccc2ncsc2c1)c1ccc(C(=O)NO)cc1` (centres unmarked) [Compound I-43, N-(1-{4-[(hydroxyamino)carbonyl]phenyl}-2-methylpropyl)-1,3-benzothiazole-6-carboxamide] showed a negative-log IC50 (pIC50) of 6.30 to 7.00.
In turn, `Cc1ccc(NC(=O)N[C@@H](c2ccc(C(=O)NO)cc2)C(C)C)cc1C` [Compound I-512, 4-[(1R)-1-({[(3,4-dimethylphenyl)amino]carbonyl}amino)-2-methylpropyl]-N-hydroxybenzamide] gave a pIC50 above 7.00.
On the same count and under the same terms, the result for `Cc1ccc(F)c(C(=O)NC(C)c2ccc(C(=O)NO)cc2)c1` (centres unmarked) [Compound I-8, 2-fluoro-N-(1-{4-[(hydroxyamino)carbonyl]phenyl}ethyl)-5-methylbenzamide] reads above 7.00.
On the same count and under the same terms, for `COc1ccc(NC(=O)NC(C)c2ccc(C(=O)NO)cc2)c(OC)c1` (centres unmarked) [Compound I-44, 4-[1-({[(2,4-dimethoxyphenyl)amino]carbonyl}amino)ethyl]-N-hydroxybenzamide] the value was above 7.00; for `Cc1ccc(CNC(=O)NC(C)c2ccc(C(=O)NO)cc2)cc1` (centres unmarked) [Compound I-277, N-hydroxy-4-[1-({[(4-methylbenzyl)amino]carbonyl}amino)ethyl]benzamide], 6.30 to 7.00; for `CC(C)[C@@H](NC(=O)Nc1cccc2ccccc12)c1ccc(C(=O)NO)cc1` [Compound I-524, N-hydroxy-4-((1R)-2-methyl-1-{[(1-naphthylamino)carbonyl]amino}propyl)benzamide], above 7.00.
In turn, `CC(NC(=O)Nc1ccc(C(F)(F)F)cc1)c1ccc(C(=O)NO)cc1` (centres unmarked) [Compound I-399, N-hydroxy-4-{1-[({[4-(trifluoromethyl)phenyl]amino}carbonyl)amino]ethyl}benzamide] had a pIC50 above 7.00.
The same measure, in the same setting: the result for `CC(C)C(NC(=O)c1ccc(F)cc1)c1ccc(C(=O)NO)cc1` (centres unmarked) [Compound I-40, 4-fluoro-N-(1-{4-[(hydroxyamino)carbonyl]phenyl}-2-methylpropyl)benzamide] reads 6.30 to 7.00.
Same read-out and setting: for `CC(NS(=O)(=O)c1ccc(C(F)(F)F)cc1)c1ccc(C(=O)NO)cc1` (centres unmarked) [Compound I-488, N-hydroxy-4-[1-({[4-(trifluoromethyl)phenyl]sulfonyl}amino)ethyl]benzamide] the value was 6.30 to 7.00.
On the same count and under the same terms, for `Cc1cccc(NC(=O)NC(C)c2ccc(C(=O)NO)cc2)c1C` (centres unmarked) [Compound I-175, 4-[1-({[(2,3-dimethylphenyl)amino]carbonyl}amino)ethyl]-N-hydroxybenzamide] the value was above 7.00; for `Cc1c(C(=O)NC(C)c2ccc(C(=O)NO)cc2)oc2ccccc12` (centres unmarked) [Compound I-7, N-(1-{4-[(hydroxyamino)carbonyl]phenyl}ethyl)-3-methyl-1-benzofuran-2-carboxamide], above 7.00.
Compound `CCCC(=O)NC(C)c1ccc(C(=O)NO)cc1` (centres unmarked) [Compound I-243, 4-[1-(butyrylamino)ethyl]-N-hydroxybenzamide] had a pIC50 above 7.00.
On the same count and under the same terms, the result for `C[C@@H](NC(=O)c1cc(Cl)c(Cl)n1C)c1ccc(C(=O)NO)cc1` [Compound I-359, 4,5-dichloro-N-((1R)-1-{4-[(hydroxyamino)carbonyl]phenyl}ethyl)-1-methyl-1H-pyrrole-2-carboxamide] reads above 7.00; that for `COc1ccc(C)cc1NC(=O)NC(C)c1ccc(C(=O)NO)cc1` (centres unmarked) [Compound I-253, N-hydroxy-4-[1-({[(2-methoxy-5-methylphenyl)amino]carbonyl}amino)ethyl]benzamide], above 7.00.
`C[C@H](NC(=O)N[C@H](C)c1ccc(C(=O)NO)cc1)c1ccccc1` [Compound I-513, N-hydroxy-4-[(1R)-1-({[(1S)-1-phenylethyl]carbamoyl}amino)ethyl]benzamide]: the pIC50 is above 7.00.
The same measure, in the same setting: the result for `CC(C)C(NC(=O)c1ccc(-c2ccc(F)cc2)cc1)c1ccc(C(=O)NO)cc1` (centres unmarked) [Compound I-143, 4′-fluoro-N-(1-{4-[(hydroxyamino)carbonyl]phenyl}-2-methylpropyl)biphenyl-4-carboxamide] reads above 7.00; that for `CC(NC(=O)C1(c2ccccc2)CCCC1)c1ccc(C(=O)NO)cc1` (centres unmarked) [Compound I-298, N-hydroxy-4-(1-{[(1-phenylcyclopentyl)carbonyl]amino}ethyl)benzamide], 6.30 to 7.00.
The same measure, in the same setting: the result for `CC(NC(=O)c1ccc2ncsc2c1)c1ccc(C(=O)NO)cc1` (centres unmarked) [Compound I-360, N-(1-{4-[(hydroxyamino)carbonyl]phenyl}ethyl)-1,3-benzothiazole-6-carboxamide] reads above 7.00.
Still for that read-out and setting: for `Cc1ccc2[nH]c(C(=O)NC(c3ccc(C(=O)NO)cc3)C(C)(C)C)c(C)c2c1` (centres unmarked) [Compound I-329, N-(1-{4-[(hydroxyamino)carbonyl]phenyl}-2,2-dimethylpropyl)-3,5-dimethyl-1H-indole-2-carboxamide] the value was above 7.00.

For the origin of these results see patent US9382197B2, “Substituted hydroxamic acids and uses thereof” (Millennium Pharmaceuticals, Inc., priority 2010, dated 2016).
